Patent US6531464B1, “Methods for the treatment of neurodegenerative disorders using substituted phenanthridinone derivatives” (Inotek Pharmaceutical Corporation, priority 1999, dated 2003)

Columns and labels:
[1] = test system: streptozotocin diabetic mice; test: Streptozotocin induced diabetes: vascular function, glucose, insulin, immunostaining; assay type: in vivo, mouse
Procedure: Male Balb/c mice were treated intraperitoneally (i.p.) with streptozotocin (240 mg/kg dissolved in citrate buffer) or vehicle (citrate buffer). Blood glucose was then monitored weekly over 8 weeks using a one-touch blood glucose meter (Lifescan). Hyperglycemia was defined as non-fasting blood glucose level higher than 200 mg/dL. Total glycated hemoglobin (GHb) content of blood samples was measured using a commercially available kit (Sigma Diagnostics) according to manufacturers instructions. […] The optical density of the two fractions was measured by spectrophotometry at 415 nm and the per cent glycated hemoglobin content was calculated as follows: GHb (%)=[…]/(E+[…]). Samples of pancreas were removed on week 8 and weighed before being placed into 6 ml of acid ethanol (23:7:0.45, ethanol:dH2O:HCl) and homogenized. The pancreas was incubated for 72 h at 4° C. before being centrifuged. The insulin content of the supernatant was then determined using a commercially available ELISA kit (Alpco). […] At 8 weeks, blood was taken for measurement of glycosylated hemoglobin levels, pancreata taken for measurements of pancreatic insulin content, and thoracic aortae taken for determination of endothelium-dependent relaxant reactivity. There was no difference in the degree of hyperglycemia and glycosylated hemoglobin, and in the degree of pancreatic insulin loss between vehicle and PJ34 treated diabetic animals. […] Sections were treated with 0.3% hydrogen peroxide for 15 min to block endogenous peroxidase activity and then rinsed briefly in PBS. Non-specific binding was blocked by incubating the slides for 1 h in PBS containing 2% horse serum. To detect poly(ADP-ribose), a routine histochemical procedure was applied, as previously described (Scott et al., Ann. Neurol. 45: 120-124, 1999) with minor modifications, as follows: Mouse monoclonal anti-poly(ADP-ribose) antibody (Alexis, San Diego, Calif.) and isotype-matched control antibody were applied in a dilution of 1:100 for 2 h at room temperature. Following extensive washing (5×5 min) with PBS, immunoreactivity was detected with a biotinylated goat anti-rabbit secondary antibody and the avidin-biotin-peroxidase complex (ABC), both supplied in the Vector Elite kit (Vector Laboratories, Burlingame, Calif.). Color was developed using Ni-DAB substrate (95 mg diaminobenzidine, 1.6 g NaCl, 2 g nickel sulfate in 200 ml 0.1 M acetate buffer). Sections were then counterstained with nuclear fast red, dehydrated and mounted in Permount. Photomicrographs were taken with a Zeiss Axiolab microscope equipped with a Fuji HC-300C digital camera. Detection of nitrotyrosine in aorta rings was carried out as described above for poly(ADP-ribose) staining except that rabbit anti-nitrotyrosine polyclonal antibody was used as the primary antibody. […] Cells were rehydrated in PBS, blocked in 2% goat serum (1 h, room temperature) and incubated in anti-nitrotyrosine (1:100 dilution) for 2 h. Subsequent steps of the staining procedure were identical to the tissue staining. Color was developed with Vector Red substrate, and slides were mounted in glycerol.

J774 macrophages = test: LPS-stimulated J774 macrophages: cell viability; assay type: cell-based
Description: In in vitro studies, J774 macrophages were exposed to bacterial lipopolysaccharide (LPS), to induce pro-inflammatory mediator production and cytotoxicity. […] This assay (the LPS-stimulated macrophage) represents an in vitro model of an inflammatory situation. Agents that block inflammatory mediator production in this assay are expected to have anti-inflammatory or immunosuppressive effects in inflammatory or immune diseases.
The half-maximal inhibitory effect (in μM) of various PJ compounds was assessed under a variety of conditions in immunostimulated J774 macrophages and in peroxynitrite-stimulated thymocytes. Macrophages or thymocytes were first treated with a chosen PJ compound for 30 min at a concentration ranging from 0.1 to 30 μM. The cells were then immunostimulated with LPS (10 μg/ml) or treated with peroxynitrite (30 μM). MIP production in the macrophages was measured at 3 h, TNF and nitric oxide were measured at 24 h, cell viability in the macrophages were measured at 24 h. PARS activation and cell death in thymocytes were measured at 6 h. Measurements of mediator production, PARS activation and cell death were essentially as described in Németh, et al., Eur J Pharmacol 339:215-221, 1997 and Virág and Szabó, Br J Pharmacol, 126: 769-777, 1999. Results in Table 2 are shown as EC50 values (half maximal inhibition of mediator production or restoration of cell viability; in μM): [mean±SEM of n=3-6 determinations].

rat = test: Middle cerebral artery occlusion/reperfusion
Procedure: Occlusion lasted for 2 hours, followed by reperfusion for 24 hours. Infarct size was quantified with tetrazolium staining, and survival and neurological scores were monitored.

[2] = 10 mg/kg per os once a day from week 1, at 8 weeks

CN(C)CC(=O)Nc1ccc2[nH]c(=O)c3ccccc3c2c1 [PJ34, N-(6-oxo-5,6-dihydro-phenanthridin-2-yl)-N,N-dimethylacetamide]
degree of hyperglycemia (blood glucose) vs vehicle ([1]; 10 mg/kg per os once a day from week 1, 0-8 weeks): no difference | degree of pancreatic insulin loss vs vehicle [1, 2]: no difference | glycosylated hemoglobin vs vehicle [1, 2]: no difference | PARS activation (poly(ADP-ribose) staining) in diabetic endothelium ([1]; 8 weeks): abolished | tyrosine nitration (nitrotyrosine immunostaining) in diabetic rings ([1]; 8 weeks): not affected | vascular reactivity of normal (non-diabetic) mice ([1]; chronic treatment 8 weeks, same regimen, not shown): did not affect | acetylcholine induced endothelium-dependent relaxant ability of thoracic aortic rings ([1]; diabetic animals at 8 weeks, 10 mg/kg per os daily, P<0.01 vs vehicle): normalized | viability of the cells suppressed by LPS exposure (in words) (J774 macrophages; J774 macrophages exposed to LPS): restored the viability | EC50 (J774 macrophages; Mus musculus, J774, LPS 10 μg/ml, 30 min pretreatment 0.1 to 30 μM, measured at 24 h, mean±SEM n=3-6, read-out: Enhancement of cell Viability (J774)): 12.5 ± 1.4 µM | reduction of the size of brain infarction (rat; 10 mg/kg i.v. at 2 h after the start of reperfusion): 55±8% | reduction of the size of brain infarction (rat; 10 mg/kg i.v. at the time of reperfusion (5 min before start)): 74±6% | mortality over 24 hours (in words) (rat; 2 hours occlusion, 24 hours reperfusion, 10 mg/kg i.v., 73% mortality in control or vehicle): no animals died | neurological deficit (scale of 1-4) (rat; 24 h, vehicle survivors scored 4): no detectable deficit
